# Measurements reported in US20230242585A1, “IMMUNOMODULATORS” (Bristol-Myers Squibb Company, priority 2020, published 2023).
# pIC50: −log10 of the molar value. Starred links: 1 amine or outer side, 2 acyl side, 3 side chain; linkers in the order of their positions; H or OH if unused. Positions of bridges follow the written chain, without caps; N, C: chain ends. Non-standard residues stand in square brackets, D forms with d. Residues, ends and D or L forms follow the SMILES beside them. X54 = O=C([C@H](CCNC[C@@H](O)C(O)[C@H](O[C@@H]1OC(CO)[C@@H](O)C(O)C1O)C(O)CO)N[*:1])[*:2]; X42 = O=C([C@H](CNC[C@@H](O)C(O)[C@H](O[C@@H]1OC(CO)[C@@H](O)C(O)C1O)C(O)CO)N[*:1])[*:2]; X43 = O=C([C@H](CNC[C@@H](O)[C@H](O)[C@@H](O)[C@@H](O)CO)N[*:1])[*:2]; X62 = O=C([C@H](CCNC[C@H](O)[C@H](O)[C@@H](O)[C@@H](O)CO)N[*:1])[*:2]; X35 = O=C([C@H](CNC[C@H](O)[C@H](O)[C@@H](O)[C@@H](O)CO)N[*:1])[*:2]; X33 = O=C([C@H](CNC[C@H](O)[C@@H](O)[C@@H](O)CO)N[*:1])[*:2]; Trp(1-CH2COOH) = N[C@@H](Cc1cn(CC(=O)O)c2ccccc12)C(=O)O; X45 = CCn1c2ccccc2c2cc(CNC[C@H](N[*:1])C(=O)[*:2])ccc21; X10 = O=C([C@H](CNCc1c2ccccc2nc2ccccc12)N[*:1])[*:2]; X36 = COc1cc2cccc(OC)c2cc1CNC[C@H](N[*:1])C(=O)[*:2]; X19 = O=C([C@H](CCNCc1cccc2nccnc12)N[*:1])[*:2]; X18 = O=C([C@H](CNCc1cccc2nccnc12)N[*:1])[*:2]; X20 = O=C([C@H](CNCc1nccc2ccccc12)N[*:1])[*:2]; Hyp = O=C(O)[C@@H]1C[C@@H](O)CN1; NMeNle = CCCC[C@H](NC)C(=O)O; NMeA = CN[C@@H](C)C(=O)O; Dab = NCC[C@H](N)C(=O)O
# Molecular target: T1, PD-1/PD-L1 (Homo sapiens, UniProt Q9NZQ7)
# T1 construct: TVMV protease site (linker) (C); made in house; host or cells: HEK293T cells
# Assay: PD-1/PD-L1 Homogenous Time-Resolved Fluorescence (HTRF) binding assay
# Conditions: PD-L1-His 10 nM, PD-1-Ig 20 nM
# Text: The ability of the compounds of formula (I) to bind to PD-L1 was investigated using a PD-1/PD-L1 Homogenous Time-Resolved Fluorescence (HTRF) binding assay.
# The interaction of PD-1 and PD-L1 can be assessed using soluble, purified preparations of the extracellular domains of the two proteins. The PD-1 and PD-L1 protein extracellular domains were expressed as fusion proteins with detection tags, for PD-1, the tag was the Fc portion of Immunoglobulin (PD-1-Ig) and for PD-L1 it was the 6 histidine motif (PD-L1-His). All binding studies were performed in an HTRF assay buffer consisting of dPBS supplemented with 0.1% […] bovine serum albumin and 0.05% (v/v) Tween-20. For the h/PD-L1-His binding assay, inhibitors were pre-incubated with PD-L1-His (10 nM final) for 15 m in 4 µl of assay buffer, followed by addition of PD-1-Ig (20 nM final) in 1 µl of assay buffer and further incubation for 15 m. HTRF detection was achieved using europium crypate-labeled anti-Ig (1 nM final) and allophycocyanin (APC) labeled anti-His (20 nM final). Antibodies were diluted in HTRF detection buffer and 5 µl was dispensed on top of the binding reaction. The reaction mixture was allowed to equilibrate for 30 minutes and the resulting signal (665 nm/620 nm ratio) was obtained using an EnVision fluorometer. Additional binding assays were established between the human proteins PD-1-Ig/PD-L2-His (20 & 5 nM, respectively) and CD80-His/PD-L1-Ig (100 & 10 nM, respectively).
# Recombinant Proteins: Human PD-1 (25-167) with a C-terminal human Fc domain of immunoglobulin G (Ig) epitope tag [hPD-1 (25-167)-3S-IG] and human PD-L1 (18-239) with a C-terminal His epitope tag [hPD-L1(18-239)-TVMV-His] were expressed in HEK293T cells and purified sequentially by ProteinA affinity chromatography and size exclusion chromatography. Human PD-L2-His and CD80-His was obtained through commercial sources.
# Table 1 lists the IC50 values for representative examples of this disclosure measured in the PD-1/PD-L1 Homogenous Time-Resolved Fluorescence (HTRF) binding assay.
# T1 sequence (Q9NZQ7 18-239): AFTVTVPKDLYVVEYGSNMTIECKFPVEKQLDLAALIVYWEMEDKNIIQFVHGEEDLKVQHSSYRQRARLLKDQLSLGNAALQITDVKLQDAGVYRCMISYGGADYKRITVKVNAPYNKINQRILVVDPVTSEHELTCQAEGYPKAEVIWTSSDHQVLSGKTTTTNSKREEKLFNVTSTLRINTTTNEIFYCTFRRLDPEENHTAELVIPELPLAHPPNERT
row,Compound,pIC50
1,CCCC[C@H]1C(=O)N(C)[C@@H](CCCC)C(=O)N[C@@H](CC(C)C)C(=O)N[C@H](C(=O)NCC(N)=O)CSCC(=O)N[C@@H](Cc2ccc(O)cc2)C(=O)N(C)[C@@H](C)C(=O)N[C@@H](CC(N)=O)C(=O)N2CCC[C@H]2C(=O)N[C@@H](CNCc2cccc3nccnc23)C(=O)N[C@@H](CC(C)C)C(=O)N2C[C@H](O)C[C@H]2C(=O)N[C@@H](Cc2c[nH]c3ccccc23)C(=O)N[C@@H](CCNCc2cccc3nccnc23)C(=O)N[C@@H](Cc2cn(CC(=O)O)c3ccccc23)C(=O)N1C [Example 1002] ({CH2CO}-Y[NMeA]NP[X18]L[Hyp]W[X19][Trp(1-CH2COOH)][NMeNle][NMeNle]LCG-NH2; thioether N-14),8.21
2,CCCC[C@H]1C(=O)N(C)[C@@H](CCCC)C(=O)N[C@@H](CC(C)C)C(=O)N[C@H](C(=O)NCC(N)=O)CSCC(=O)N[C@@H](Cc2ccc(O)cc2)C(=O)N(C)[C@@H](C)C(=O)N[C@@H](CC(N)=O)C(=O)N2CCC[C@H]2C(=O)N[C@@H](CNCc2c3ccccc3nc3ccccc23)C(=O)N[C@@H](CC(C)C)C(=O)N2C[C@H](O)C[C@H]2C(=O)N[C@@H](Cc2c[nH]c3ccccc23)C(=O)N[C@@H](CCN)C(=O)N[C@@H](Cc2cn(CC(=O)O)c3ccccc23)C(=O)N1C [Example 1013] ({CH2CO}-Y[NMeA]NP[X10]L[Hyp]W[Dab][Trp(1-CH2COOH)][NMeNle][NMeNle]LCG-NH2; thioether N-14),8.34
3,CCCC[C@H]1C(=O)N(C)[C@@H](CCCC)C(=O)N[C@@H](CC(C)C)C(=O)N[C@H](C(=O)NCC(N)=O)CSCC(=O)N[C@@H](Cc2ccc(O)cc2)C(=O)N(C)[C@@H](C)C(=O)N[C@@H](CC(N)=O)C(=O)N2CCC[C@H]2C(=O)N[C@@H](CNCc2nccc3ccccc23)C(=O)N[C@@H](CC(C)C)C(=O)N2C[C@H](O)C[C@H]2C(=O)N[C@@H](Cc2c[nH]c3ccccc23)C(=O)N[C@@H](CCN)C(=O)N[C@@H](Cc2cn(CC(=O)O)c3ccccc23)C(=O)N1C [Example 1018] ({CH2CO}-Y[NMeA]NP[X20]L[Hyp]W[Dab][Trp(1-CH2COOH)][NMeNle][NMeNle]LCG-NH2; thioether N-14),8.08
4,CCCC[C@H]1C(=O)N(C)[C@@H](CCCC)C(=O)N[C@@H](CC(C)C)C(=O)N[C@H](C(=O)NCC(N)=O)CSCC(=O)N[C@@H](Cc2ccc(O)cc2)C(=O)N(C)[C@@H](C)C(=O)N[C@@H](CC(N)=O)C(=O)N2CCC[C@H]2C(=O)N[C@@H](CNCc2ccc3c(c2)c2ccccc2n3CC)C(=O)N[C@@H](CC(C)C)C(=O)N2C[C@H](O)C[C@H]2C(=O)N[C@@H](Cc2c[nH]c3ccccc23)C(=O)N[C@@H](CCN)C(=O)N[C@@H](Cc2cn(CC(=O)O)c3ccccc23)C(=O)N1C [Example 1014] ({CH2CO}-Y[NMeA]NP[X45]L[Hyp]W[Dab][Trp(1-CH2COOH)][NMeNle][NMeNle]LCG-NH2; thioether N-14),8.33
5,CCCC[C@H]1C(=O)N(C)[C@@H](CCCC)C(=O)N[C@@H](CC(C)C)C(=O)N[C@H](C(=O)NCC(N)=O)CSCC(=O)N[C@@H](Cc2ccc(O)cc2)C(=O)N(C)[C@@H](C)C(=O)N[C@@H](CC(N)=O)C(=O)N2CCC[C@H]2C(=O)N[C@@H](CNCc2cc3c(OC)cccc3cc2OC)C(=O)N[C@@H](CC(C)C)C(=O)N2C[C@H](O)C[C@H]2C(=O)N[C@@H](Cc2c[nH]c3ccccc23)C(=O)N[C@@H](CCN)C(=O)N[C@@H](Cc2cn(CC(=O)O)c3ccccc23)C(=O)N1C [Example 1016] ({CH2CO}-Y[NMeA]NP[X36]L[Hyp]W[Dab][Trp(1-CH2COOH)][NMeNle][NMeNle]LCG-NH2; thioether N-14),8.19

# Results, then the compound that gave them:
row,pIC50,Compound
1,9.00,CCCC[C@H]1C(=O)N(C)[C@@H](CCCC)C(=O)N[C@@H](CC(C)C)C(=O)N[C@H](C(=O)NCC(N)=O)CSCC(=O)N[C@@H](Cc2ccc(O)cc2)C(=O)N(C)[C@@H](C)C(=O)N[C@@H](CC(N)=O)C(=O)N2CCC[C@H]2C(=O)N[C@@H](CNC[C@H](O)[C@H](O)[C@@H](O)[C@@H](O)CO)C(=O)N[C@@H](CC(C)C)C(=O)N2C[C@H](O)C[C@H]2C(=O)N[C@@H](Cc2c[nH]c3ccccc23)C(=O)N[C@@H](CCN)C(=O)N[C@@H](Cc2cn(CC(=O)O)c3ccccc23)C(=O)N1C [Example 2027] ({CH2CO}-Y[NMeA]NP[X35]L[Hyp]W[Dab][Trp(1-CH2COOH)][NMeNle][NMeNle]LCG-NH2; thioether N-14)
2,8.21,CCCC[C@H]1C(=O)N(C)[C@@H](CCCC)C(=O)N[C@@H](CC(C)C)C(=O)N[C@H](C(=O)NCC(N)=O)CSCC(=O)N[C@@H](Cc2ccc(O)cc2)C(=O)N(C)[C@@H](C)C(=O)N[C@@H](CC(N)=O)C(=O)N2CCC[C@H]2C(=O)N[C@@H](CNC[C@H](O)[C@H](O)[C@@H](O)[C@@H](O)CO)C(=O)N[C@@H](CC(C)C)C(=O)N2C[C@H](O)C[C@H]2C(=O)N[C@@H](Cc2c[nH]c3ccccc23)C(=O)N[C@@H](CCNC[C@H](O)[C@H](O)[C@@H](O)[C@@H](O)CO)C(=O)N[C@@H](Cc2cn(CC(=O)O)c3ccccc23)C(=O)N1C [Example 2023] ({CH2CO}-Y[NMeA]NP[X35]L[Hyp]W[X62][Trp(1-CH2COOH)][NMeNle][NMeNle]LCG-NH2; thioether N-14)
3,8.20,CCCC[C@H]1C(=O)N(C)[C@@H](CCCC)C(=O)N[C@@H](CC(C)C)C(=O)N[C@H](C(=O)NCC(N)=O)CSCC(=O)N[C@@H](Cc2ccc(O)cc2)C(=O)N(C)[C@@H](C)C(=O)N[C@@H](CC(N)=O)C(=O)N2CCC[C@H]2C(=O)N[C@@H](CNC[C@@H](O)C(O)[C@H](O[C@@H]2OC(CO)[C@@H](O)C(O)C2O)C(O)CO)C(=O)N[C@@H](CC(C)C)C(=O)N2C[C@H](O)C[C@H]2C(=O)N[C@@H](Cc2c[nH]c3ccccc23)C(=O)N[C@@H](CCNC[C@@H](O)C(O)[C@H](O[C@@H]2OC(CO)[C@@H](O)C(O)C2O)C(O)CO)C(=O)N[C@@H](Cc2cn(CC(=O)O)c3ccccc23)C(=O)N1C (stereo partly shown) [Example 2040] ({CH2CO}-Y[NMeA]NP[X42]L[Hyp]W[X54][Trp(1-CH2COOH)][NMeNle][NMeNle]LCG-NH2; thioether N-14)
4,8.70,CCCC[C@H]1C(=O)N(C)[C@@H](CCCC)C(=O)N[C@@H](CC(C)C)C(=O)N[C@H](C(=O)NCC(N)=O)CSCC(=O)N[C@@H](Cc2ccc(O)cc2)C(=O)N(C)[C@@H](C)C(=O)N[C@@H](CC(N)=O)C(=O)N2CCC[C@H]2C(=O)N[C@@H](CNC[C@@H](O)[C@H](O)[C@@H](O)[C@@H](O)CO)C(=O)N[C@@H](CC(C)C)C(=O)N2C[C@H](O)C[C@H]2C(=O)N[C@@H](Cc2c[nH]c3ccccc23)C(=O)N[C@@H](CCN)C(=O)N[C@@H](Cc2cn(CC(=O)O)c3ccccc23)C(=O)N1C [Example 2016] ({CH2CO}-Y[NMeA]NP[X43]L[Hyp]W[Dab][Trp(1-CH2COOH)][NMeNle][NMeNle]LCG-NH2; thioether N-14)
5,8.30,CCCC[C@H]1C(=O)N(C)[C@@H](CCCC)C(=O)N[C@@H](CC(C)C)C(=O)N[C@H](C(=O)NCC(N)=O)CSCC(=O)N[C@@H](Cc2ccc(O)cc2)C(=O)N(C)[C@@H](C)C(=O)N[C@@H](CC(N)=O)C(=O)N2CCC[C@H]2C(=O)N[C@@H](CNC[C@H](O)[C@@H](O)[C@@H](O)CO)C(=O)N[C@@H](CC(C)C)C(=O)N2C[C@H](O)C[C@H]2C(=O)N[C@@H](Cc2c[nH]c3ccccc23)C(=O)N[C@@H](CCN)C(=O)N[C@@H](Cc2cn(CC(=O)O)c3ccccc23)C(=O)N1C [Example 2002] ({CH2CO}-Y[NMeA]NP[X33]L[Hyp]W[Dab][Trp(1-CH2COOH)][NMeNle][NMeNle]LCG-NH2; thioether N-14)
